Source: patent US7795305B2, “CDDO-compounds and combination therapies thereof” (Board of Regents, The University of Texas System, priority 2000, dated 2010)

Tests used:
AML CD34+ cells = test: Fas expression in primary AML CD34+ cells; assay type: cell-based, human
Method: Immunophenotyping. The PE-conjugated anti-CD11b, FITC-conjugated anti-CD14 monoclonal antibody (mAb) (Becton Dickinson) and PE-conjugated anti-CD95 mAb (PharMingen) were used at a 1/10 dilution. The percentage of positive cells was calculated by subtracting the percentage of cells with a fluorescence intensity greater than the set marker using the isotype control (background) from the percentage of cells with a fluorescence intensity greater than the same marker using the specific antibody.
Mechanisms of CDDO-induced apoptosis in leukemia cell lines and in primary AML samples were also determined. The involvement of the death receptor/Fas pathway was studied in NB4 cells. Treatment with 0.5 μM CDDO induced cell surface Fas/CD95 expression at 48 hours (MFI 34.8 vs 24.8 in DMSO-treated cells and 26 in untreated control). At this concentration, 22.3% of cells were annexin V positive compared with 11.4% in DMSO-controls. At 1 μM, 56.3% of cells were apoptotic. Similarly, 1 μM CDDO induced Fas expression in 7/12 AML CD34+ cells (MFI, 22.3±3.5 in DMSO-controls, 40±4.3 in CDDO-treated CD34+ cells, p<0.01).

HL-60 cells = test: Differentiation by CD11b/CD14 flow cytometry; assay type: cell-based, human; conditions: 7 days, 0.5 μM
U937 cells = test: cells; assay type: cell-based, human
Method: Suspension culture of leukemic cells.
CDDO. The effect of CDDO on the survival of HL-60 and U937 leukemia cell lines is depicted in FIG. 1. A time- and dose-dependent decrease of HL-60 cells: at 48 hours, 10^−8 M, at 72 and 96 hours, 10^−9 M of CDDO reduced cell numbers by 50%. Viability of U937 cells was inhibited at 107 to 1018 at 48 hours. DNA fragmentation was measured to confirm that the cell death induced by CDDO was due to apoptosis on a sub G1 cell population by DNA/RNA flow cytometry (FIG. 2). The percentage of proliferating cells were analyzed by FCM.

ERK1/2 in U937 cells = test: ERK1/2 phosphorylation, Western blot; assay type: cell-based, human; conditions: 1 μM, 3 hours
Method: Western blot analysis. An equal amount of protein lysate was placed on 12% SDS-PAGE for 2 hours at 100 volts, followed by transfer of the protein to a Nytran membrane (S&S, Heween, N.H.) and immunoblotting. Polyclonal rabbit antibodies to Bcl-2, Bcl-XL, and Bax were kindly provided by Dr. J. C. Reed. Antibodies against PARP was obtained from PharMingen (San Diego, Calif.), DFF-45 from Oncogene (Cambridge, Mass.), XIAP from Transduction Laboratories (Lexington, Ky.), caspase-3 from PharMingen, phospho-specific anti-pERK1/2 antibodies from Calbiochem (San Diego, Calif.). A specific antibody recognizing only the p20-processed caspase-3 band was provided by Idun Pharmaceutical, Inc. (La Jolla, Calif.).
Since PKC-α and the MAP kinases ERK1 (p44) and ERK2 (p42) have been identified as physiologic Bcl-2 kinases, studies were performed to assess their activation status. […] However, both ERK1 and ERK2 were prominently detected in the mitochondrial membranes. […] Treatment of K562 cells with 1 μM of CDDO-Me in vivo abrogated ERK kinase activity similar to specific MEK inhibitor […]. No effect on Akt activity was seen. These findings indicate that CDDO-Me induces apoptosis by inhibition of ERK1/2 and Bcl-2 phosphorylation.

Bcl-2 phosphorylation = test: Bcl-2 phosphorylation, 32P metabolic labeling; assay type: cell-based; conditions: 0.1 μM
Method: Metabolic labeling, immunoprecipitation, and immunoblot analysis. Cells were labeled with [^32P]orthophosphoric acid and then treated with 0.1 μM CDDO-Me or CDDO, after which Bcl-2 was analyzed by immunoprecipitation, as previously described Samples were electrophoresed in a 12% acrylamide/0.1% SDS gel, transferred to nitrocellulose, and exposed to Hyperfilm (Amersham Pharmacia Biotech, UK) at −80° C. The same blot was used for western blot analysis with anti-Bcl-2 antisera.
(§1) The effect of CDDO-Me on Bcl-2 phosphorylation was further investigated by performing metabolic labeling studies with ^32P-orthophosphoric acid. […] To further investigate mechanisms of inhibition of Bcl-2 phosphorylation that could may a role in CDDO-Me-induced cell death, the inventors selected U937 cells that were stably transfected with a serine 70→alanine, Bcl-2 mutant (S70A).

U937/S70A Bcl-2 cells = test: Viability of Bcl-2 mutant transfectants; assay type: cell-based, human; conditions: 0.1 μM
Source text: (§2) Cell lines. HL-60, KG-1, U937, and Jurkat cell lines were obtained from the American Type Culture Collection (Rockville, Md.). NB4 cells were kindly provided by Dr. M. Lanotte. HL-60-doxorubicin-resistant cells (HL-60-DOX) were also used. U937/Bcl-2 and its appropriate vector controls (U937/pCEP) were provided by Dr. S. Grant. U937 cells were transfected with WT, S70A, or S70E cDNA containing cytomegalovirus plasmids by electroporation (200 V, 975 μF capacitance) and selected and maintained in the medium plus 500 μg/mL G418 (Gibco BRL, Gaithersburg, Md.)
as §1

U937 S70E Bcl-2 cells = test: Viability of Bcl-2 mutant transfectants; assay type: cell-based, human; conditions: 0.1 μM
Source text: as §2, §1

Structure (SMILES) | AML samples with induced Fas expression in CD34+ cells (AML CD34+ cells; 1 μM) | Fas expression, MFI (AML CD34+ cells; 1 μM (22.3±3.5 in DMSO-controls)) | CD11b % (HL-60 cells) [%] | concentration at which viability of U937 cells was inhibited (U937 cells; 48 hours) | viability at 1 µM (U937 cells; Homo sapiens, U-937, 48 h, read-out: cells remaining viable) [%] | viability at 2 µM (U937 cells; Homo sapiens, U-937, read-out: viable cells) [%] | activation of ERK1/2 (ERK1/2 phosphorylation) (ERK1/2 in U937 cells) | Bcl-2 phosphorylation (Bcl-2 phosphorylation) | decrease in viability (U937/S70A Bcl-2 cells) [%] | viable cells (U937 S70E Bcl-2 cells) [%]
CC1(C)CCC2(C(=O)O)CCC3(C)C(C(=O)C=C4C5(C)C=C(C#N)C(=O)C(C)(C)C5CCC43C)C2C1 (stereo not shown) [CDDO, 2-cyano-3,12-dioxoolen-1,9-dien-28-oic acid] | 7/12 | 40±4.3 | 83.1 | 107 to 1018 | 44.7 | 30.2 |  |  |  | 
COC(=O)[C@]12CCC(C)(C)C[C@H]1[C@H]1C(=O)C=C3[C@@]4(C)C=C(C#N)C(=O)C(C)(C)[C@@H]4CC[C@@]3(C)[C@]1(C)CC2 [CDDO-Me] |  |  |  |  |  |  | blocked the activation of ERK1/2 | virtually abrogated | 60 | 75
